In patent US20060051291A1, “Synthesis of radiolabeled sugar metal complexes” (priority 2004, published 2006):

Assay type: physicochemical
Source text: Minor species are also detected by UV/visible spectroscopy in the HPLC of the complex and become more significant over time. The ^13C{^1H} NMR spectrum (d6-DMSO) of the complex was fully assigned for the α-anomer, and partially assigned for the β-anomer (as reflected above in TABLE 1).

## Tricarbonyl (N-(2′-Hydroxybenzyl)-2-amino-2-deoxy-D-glucose) rhenium(I) [[(L^2)Re(CO)3]]
  stability in solution: become visibly brown
